Test results from US7618996B2, “Diaryl ether derivatives and uses thereof” (Pfizer Inc., priority 2006, dated 2009).
Counter-ions that a name gives are not always drawn.

Experiments:
[1] = Pharmacokinetic experiment, IV in rats; type: in vivo, rat; details: male JVC/CAC rats, 1 mg/kg IV; for half-life / clearance / Vd: rat, plasma; for clearance: average of two rats; for Vd: read-out: volume of distribution
Procedure: A representative compound of the present invention (Example 1A) and a comparator compound (Example 2A) were individually dosed into two different male JVC/CAC rats at 1 mg/kg in a 10% ethanol and 90% (30% beta-cyclodextrin sulfobutylether) vehicle. Blood was subsequently collected at 0.083, 0.25, 0.5, 1, 2, 4, 6, 8 and 20 hours post IV administration. After spinning the blood samples down to get plasma, the plasma concentrations were determined by LC/MS/MS. The pharmacokinetic (PK) analysis was determined by inputting the resultant time concentration data into a Watson™ Laboratory Information Management System (LIMS).

[2] = molecular target: T1, mu opioid receptor (Homo sapiens, UniProt P35372); assay: GTPγ[35S] binding assay at mu opioid receptor (antagonist vs β-endorphin); type: biochemical; parameters: expressed in transfected cells; details: average Ki; membranes, challenged with β-endorphin (1 μM)
Procedure: (§1) GTPγ[^35S] Binding Assays at Opioid Receptors
(§2) Membranes were prepared from cells as described (Bass et al, 1996). GTPγ[^35S] binding assays were performed in a 96 well FlashPlate™ format in duplicate using 100 pM GTPγ[^35S] and 5 μg membrane per well in assay buffer composed of 50 mM Tris HCl, pH 7.4, 5 mM MgCl2, 1 mM EDTA, 100 mM NaCl, 30 μM GDP, 0.1% bovine serum albumin and the following protease inhibitors: 100 μg/ml bacitracin, 100 μg/ml benzamidine, 5 μg/ml aprotinin, 5 μg/ml leupeptin. The assay mix was then incubated at 30° C. with increasing concentrations of antagonist (10^−10 M to 10^−5 M) for 10 minutes and challenged with the agonists BW-373U86 (1 nM), dynorphin-A (10 nM), β-endorphin (1 μM) for opioid receptors delta, kappa, and mu, respectively. The assays were performed at 30° C. for one hour. The FlashPlates were then centrifuged at 2000×g for 10 minutes. Stimulation of GTPγ[^35S] binding was then quantified using a Wallac Microbeta and Ki calculations were done using Prism™ by Graphpad. […] Each of the compounds listed below were tested as their hydrochloride salts unless indicated otherwise. Those Example Numbers with an asterisk (*) were tested as their free base.

[3] = molecular target: T2, kappa opioid receptor (Homo sapiens, UniProt P41145); assay: GTPγ[35S] binding assay at kappa opioid receptor (antagonist vs dynorphin-A); type: biochemical; parameters: expressed in transfected cells; details: average Ki; membranes, challenged with dynorphin-A (10 nM)
Procedure: as §1, §2

[4] = molecular target: T3, delta opioid receptor (Homo sapiens, UniProt P41143); assay: GTPγ[35S] binding assay at delta opioid receptor (antagonist vs BW-373U86); type: biochemical; parameters: expressed in transfected cells; details: average Ki; membranes, challenged with BW-373U86 (1 nM)
Procedure: as §1, §2

[5] = literature (Shaw 1991, 1993; Levine 1991); cited from earlier work
[6] = molecular target: T1, mu opioid receptor; details: literature (Statnick 2003; Zimmerman 1993); cited from earlier work
[7] = molecular target: T2, kappa opioid receptor; details: literature (Statnick 2003; Zimmerman 1993); cited from earlier work
[8] = molecular target: T3, delta opioid receptor; details: compared with mu and kappa; literature; cited from earlier work

T1 sequence (P35372 whole entry): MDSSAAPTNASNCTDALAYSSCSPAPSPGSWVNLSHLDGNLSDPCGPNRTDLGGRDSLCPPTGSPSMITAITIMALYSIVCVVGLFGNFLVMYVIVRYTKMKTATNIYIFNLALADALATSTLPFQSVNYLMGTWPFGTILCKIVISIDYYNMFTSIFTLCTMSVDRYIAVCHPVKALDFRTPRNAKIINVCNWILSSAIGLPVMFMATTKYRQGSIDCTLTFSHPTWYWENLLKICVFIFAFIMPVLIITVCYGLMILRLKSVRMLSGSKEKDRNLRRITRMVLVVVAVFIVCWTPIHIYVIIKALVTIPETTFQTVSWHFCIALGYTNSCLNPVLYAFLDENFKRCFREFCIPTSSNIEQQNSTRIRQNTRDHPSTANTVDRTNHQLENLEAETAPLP
T2 sequence (P41145 whole entry): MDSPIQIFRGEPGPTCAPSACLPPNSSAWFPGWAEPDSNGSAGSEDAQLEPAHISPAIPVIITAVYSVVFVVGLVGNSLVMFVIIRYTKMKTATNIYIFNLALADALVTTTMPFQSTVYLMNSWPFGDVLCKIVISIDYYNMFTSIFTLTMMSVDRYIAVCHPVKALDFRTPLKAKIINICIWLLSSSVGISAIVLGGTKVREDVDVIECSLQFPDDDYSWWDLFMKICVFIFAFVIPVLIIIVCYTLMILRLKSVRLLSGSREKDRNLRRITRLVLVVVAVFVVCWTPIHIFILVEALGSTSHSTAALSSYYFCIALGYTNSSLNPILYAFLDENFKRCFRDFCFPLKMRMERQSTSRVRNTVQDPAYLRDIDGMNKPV
T3 sequence (P41143 whole entry): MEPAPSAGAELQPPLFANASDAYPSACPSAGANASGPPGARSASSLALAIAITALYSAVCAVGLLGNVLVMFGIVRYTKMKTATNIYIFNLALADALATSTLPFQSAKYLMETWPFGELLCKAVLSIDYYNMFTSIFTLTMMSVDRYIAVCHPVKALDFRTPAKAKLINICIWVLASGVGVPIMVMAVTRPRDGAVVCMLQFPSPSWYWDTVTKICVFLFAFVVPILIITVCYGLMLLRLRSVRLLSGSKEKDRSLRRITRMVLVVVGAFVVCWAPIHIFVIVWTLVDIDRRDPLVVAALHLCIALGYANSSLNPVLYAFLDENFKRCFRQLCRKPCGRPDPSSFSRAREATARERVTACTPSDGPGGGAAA

Row | Compound | Ki [2] [nM] | Ki [3] [nM] | Ki [4] [nM] | other results
1 | CC(C)CCNCc1ccc(Oc2ccc(C(N)=O)c(O)c2)c(F)c1 [Example 1A, 4-(2-fluoro-4-{[(3-methylbutyl)amino]methyl}phenoxy)-2-hydroxybenzamide, hydrochloride salt] | 0.335 | 0.652 | 0.64 | half-life [1]: 2.9 h; clearance [1]: 18.6 mL/min/kg; Vd [1]: 2 L/kg
2 | CC(C)CCNCc1ccc(Oc2cccc(O)c2)c(F)c1.Cl [Example 2A, 3-(2-fluoro-4-{[(3-methylbutyl)amino]-methyl}phenoxy)phenol, hydrochloride salt] | 16.7 | 47.1 | 25.4 | clearance relative to hepatic blood flow [1]: approximately 5 times hepatic blood flow; half-life [1]: 0.7 h; clearance [1]: 361 mL/min/kg; Vd [1]: 10 L/kg
3 | NC(=O)c1ccc(Oc2ccc(CNCCC3CC3)cc2F)cc1O [Example 3A, 4-(4-{[(2-cyclopropylethyl)amino]methyl}-2-fluorophenoxy)-2-hydroxybenzamide, hydrochloride salt] | 0.312 | 0.39 | 0.62 | 
4 | NC(=O)c1ccc(Oc2ccc(CNC3Cc4ccccc4C3)cc2F)cc1O [Example 3B] | 0.00412 | 0.0348 | 0.041 | 
5 | CC(C)OCCNCc1ccc(Oc2ccc(C(N)=O)c(O)c2)c(F)c1 [Example 3C] | 1.65 | 3.78 | 1.68 | 
6 | NC(=O)c1ccc(Oc2ccc(CNCCOc3ccccc3)cc2F)cc1O [Example 3D] | 0.92 | 5.35 | 0.687 | 
7 | NC(=O)c1ccc(Oc2ccc(CNCC3CCCO3)cc2F)cc1O (stereo not shown) [Example 3E] | 1.17 | 0.47 | 3.25 | 
8 | NC(=O)c1ccc(Oc2ccc(CNC[C@@H]3CCCO3)cc2F)cc1O [Example 3F] | 0.855 | 0.235 | 2.23 | 
9 | NC(=O)c1ccc(Oc2ccc(CNC[C@H]3CCCO3)cc2F)cc1O [Example 3G] | 3.91 | 1.09 | 10.3 | 
10 | NC(=O)c1ccc(Oc2ccc(CNCC3CCOCC3)cc2F)cc1O [Example 3H] | 4.9 | 1.56 | 3.02 | 
11 | NC(=O)c1ccc(Oc2ccc(CNCC3(O)CCCCC3)cc2F)cc1O [Example 3I] | 0.158 | 0.215 | 3.33 | 
12 | CC[C@@H](NCc1ccc(Oc2ccc(C(N)=O)c(O)c2)c(F)c1)c1ccccn1 [Example 3J] | 26.2 | 13.8 | 16.6 | 
13 | C[C@H]1CN(CC[C@H](O)C2CCCCC2)CC[C@@]1(C)c1cccc(O)c1 [LY255582] |  |  |  | anorectic effects [5]: robust anorectic effects
14 | CC1CNCCC1(C)c1cccc(O)c1 (stereo not shown) [LY515300, 3,4-dimethyl-4-(3-hydroxyphenyl)piperidine] |  |  |  | binding affinity for the mu-opioid receptor subtype [6]: sub-nanomolar; binding affinity for the kappa-opioid receptor subtype [7]: sub-nanomolar; affinity for the delta-opioid receptor [8]: lower affinity

Further lines, with some results ahead:

Row | Ki [2] [nM] | Ki [3] [nM] | Ki [4] [nM] | Compound | other results
15 | 0.094 | 0.164 | 0.465 | CC(C)CCNCc1cc(F)c(Oc2ccc(C(N)=O)c(O)c2)c(F)c1 [Example 4A, 4-(2,6-difluoro-4-{[(3-methybutyl)amino]methyl}phenoxy)-2-hydroxybenzamide] | 
16 | 0.0772 | 0.0731 | 0.866 | NC(=O)c1ccc(Oc2c(F)cc(CNC3CCCCC3)cc2F)cc1O [Example 4B] | 
17 | 0.167 | 0.244 | 1.1 | NC(=O)c1ccc(Oc2c(F)cc(CNCCC3CC3)cc2F)cc1O [Example 4C] | 
18 | 0.346 | 0.184 | 4.87 | NC(=O)c1ccc(Oc2c(F)cc(CNC[C@@H]3CCCO3)cc2F)cc1O [Example 4D] | 
19 | 0.0963 | 0.419 | 0.352 | NC(=O)c1ccc(Oc2c(F)cc(CNCCC3CCOCC3)cc2F)cc1O [Example 4E] | 
20 |  | 0.0848 | 0.0543 | NC(=O)c1ccc(Oc2c(F)cc(CNC3Cc4ccccc4C3)cc2F)cc1O [Example 4F] | 
